Experiments:
Assay type in all cases: functional
[1] = test system: COLO 205; experiment: Cytotoxicity against human COLO205 cells assessed as cell growth at 0.01 uM incubated for 48 hrs by sulforhodamine B assay relative to control; settings: COLO 205, 48 h, read-out: Activity
[2] = test system: KM12; experiment: Cytotoxicity against human KM12 cells assessed as cell growth at 1 uM incubated for 48 hrs by sulforhodamine B assay relative to control; settings: KM12, 48 h, read-out: Activity
[3] = test system: NCI-H522; experiment: Cytotoxicity against human NCI-H522 cells assessed as cell growth at 0.1 uM incubated for 48 hrs by sulforhodamine B assay relative to control; settings: NCI-H522, 48 h, read-out: Activity
[4] = test system: NCI-H23; experiment: Cytotoxicity against human NCI-H23 cells assessed as cell growth at 100 uM incubated for 48 hrs by sulforhodamine B assay relative to control; settings: NCI-H23, 48 h, read-out: Activity
[5] = test system: OVCAR-3; experiment: Cytotoxicity against human OVCAR3 cells assessed as cell growth at 1 uM incubated for 48 hrs by sulforhodamine B assay relative to control; settings: OVCAR-3, 48 h, read-out: Activity
[6] = test system: TK-10; experiment: Cytotoxicity against human TK10 cells incubated for 48 hrs by sulforhodamine B assay; settings: TK-10, 48 h
[7] = test system: UACC-62; experiment: Cytotoxicity against human UACC62 cells assessed as cell growth at 1 uM incubated for 48 hrs by sulforhodamine B assay relative to control; settings: UACC-62, 48 h, read-out: Activity
[8] = test system: MOLT-4; experiment: Cytotoxicity against human MOLT4 cells assessed as cell growth at 1 uM incubated for 48 hrs by sulforhodamine B assay relative to control; settings: MOLT-4, 48 h, read-out: Activity
[9] = test system: HCT-15; experiment: Cytotoxicity against human HCT15 cells assessed as cell growth at 0.01 uM incubated for 48 hrs by sulforhodamine B assay relative to control; settings: HCT-15, 48 h, read-out: Activity
[10] = test system: MDA-MB-231; experiment: Cytotoxicity against human MDA-MB-231 cells assessed as cell growth at 1 uM incubated for 48 hrs by sulforhodamine B assay relative to control; settings: MDA-MB-231, 48 h, read-out: Activity
[11] = test system: MDA-MB-435; experiment: Cytotoxicity against human MDA-MB-435 cells assessed as cell growth at 1 uM incubated for 48 hrs by sulforhodamine B assay relative to control; settings: MDA-MB-435, 48 h, read-out: Activity
[12] = test system: A549; experiment: Cytotoxicity against human A549/ATCC cells assessed as cell growth at 1 uM incubated for 48 hrs by sulforhodamine B assay relative to control; settings: A549, 48 h, read-out: Activity
[13] = test system: M14; experiment: Cytotoxicity against human M14 cells assessed as cell growth at 1 uM incubated for 48 hrs by sulforhodamine B assay relative to control; settings: M14, 48 h, read-out: Activity
[14] = test system: SNB-75; experiment: Cytotoxicity against human SNB75 cells incubated for 48 hrs by sulforhodamine B assay; settings: SNB-75, 48 h
[15] = test system: OVCAR-5; experiment: Cytotoxicity against human OVCAR5 cells assessed as cell growth at 10 uM incubated for 48 hrs by sulforhodamine B assay relative to control; settings: OVCAR-5, 48 h, read-out: Activity
[16] = test system: A549; experiment: Cytotoxicity against human A549/ATCC cells assessed as cell growth at 100 uM incubated for 48 hrs by sulforhodamine B assay relative to control; settings: A549, 48 h, read-out: Activity
[17] = test system: EKVX; experiment: Cytotoxicity against human EKVX cells incubated for 48 hrs by sulforhodamine B assay
[18] = test system: RXF 393; experiment: Cytotoxicity against human RXF393 cells assessed as cell growth at 0.01 uM incubated for 48 hrs by sulforhodamine B assay relative to control; settings: RXF 393, 48 h, read-out: Activity
[19] = test system: BT-549; experiment: Cytotoxicity against human BT549 cells incubated for 48 hrs by sulforhodamine B assay; settings: BT-549, 48 h
[20] = test system: MCF7; experiment: Cytotoxicity against human MCF7 cells assessed as cell growth at 100 uM incubated for 48 hrs by sulforhodamine B assay relative to control; settings: MCF7, 48 h, read-out: Activity
[21] = test system: A498; experiment: Cytotoxicity against human A498 cells assessed as cell growth at 0.01 uM incubated for 48 hrs by sulforhodamine B assay relative to control; settings: A498, 48 h, read-out: Activity
[22] = test system: MCF7; experiment: Cytotoxicity against human MCF7 cells assessed as cell growth at 0.01 uM incubated for 48 hrs by sulforhodamine B assay relative to control; settings: MCF7, 48 h, read-out: Activity
[23] = test system: SF-295; experiment: Cytotoxicity against human SF295 cells assessed as cell growth at 100 uM incubated for 48 hrs by sulforhodamine B assay relative to control; settings: SF-295, 48 h, read-out: Activity
[24] = test system: OVCAR-4; experiment: Cytotoxicity against human OVCAR4 cells assessed as cell growth at 0.1 uM incubated for 48 hrs by sulforhodamine B assay relative to control; settings: OVCAR-4, 48 h, read-out: Activity
[25] = test system: HL-60(TB); experiment: Cytotoxicity against human HL-60(TB) cells assessed as cell growth at 0.01 uM incubated for 48 hrs by sulforhodamine B assay relative to control; settings: HL-60, 48 h, read-out: Activity
[26] = test system: U-251; experiment: Cytotoxicity against human U251 cells assessed as cell growth at 0.1 uM incubated for 48 hrs by sulforhodamine B assay relative to control; settings: U-251, 48 h, read-out: Activity
[27] = test system: SR; experiment: Cytotoxicity against human SR cells assessed as cell growth at 10 uM incubated for 48 hrs by sulforhodamine B assay relative to control; settings: read-out: Activity
[28] = test system: EKVX; experiment: Cytotoxicity against human EKVX cells assessed as cell growth at 1 uM incubated for 48 hrs by sulforhodamine B assay relative to control; settings: read-out: Activity
[29] = test system: UO-31; experiment: Cytotoxicity against human UO31 cells assessed as cell growth at 100 uM incubated for 48 hrs by sulforhodamine B assay relative to control; settings: UO-31, 48 h, read-out: Activity
[30] = test system: NCI-H322M; experiment: Cytotoxicity against human NCI-H322M cells assessed as cell growth at 0.1 uM incubated for 48 hrs by sulforhodamine B assay relative to control; settings: read-out: Activity
[31] = test system: HCC 2998; experiment: Cytotoxicity against human HCC2998 cells assessed as cell growth at 100 uM incubated for 48 hrs by sulforhodamine B assay relative to control; settings: HCC 2998, 48 h, read-out: Activity
[32] = test system: MDA-MB-231; experiment: Cytotoxicity against human MDA-MB-231 cells assessed as cell growth at 10 uM incubated for 48 hrs by sulforhodamine B assay relative to control; settings: MDA-MB-231, 48 h, read-out: Activity
[33] = read-out: LC50 (the source's name)
[34] = read-out: pLC50 (the source's name) (converted)

SMILES: COc1ccc(-c2nocc2-c2cc(OC)c(OC)c(OC)c2)cc1
- growth at 0.01 µM [1]: 91%
- growth at 1 µM [2]: 20%
- growth at 0.1 µM [3]: -12%
- growth at 100 µM [4]: -3%
- growth at 1 µM [5]: 1%
- GI50 ([6]; read-out: GI50): 0.0792 µM
- CC50 [6, 33]: > 100 µM
- TGI ([6]; read-out: TGI): 43.1 µM
- GI50 ([6]; read-out: pGI50 (converted)): 0.0794 µM
- CC50 [6, 34]: > 100 µM
- TGI ([6]; read-out: pTGI (converted)): 42.7 µM
- growth at 1 µM [7]: 27%
- growth at 1 µM [8]: 44%
- growth at 0.01 µM [9]: 88%
- growth at 1 µM [10]: 38%
- growth at 1 µM [11]: -25%
- growth at 1 µM [12]: 28%
- growth at 1 µM [13]: 12%
- GI50 ([14]; read-out: GI50): 0.0772 µM
- CC50 [14, 33]: > 100 µM
- TGI ([14]; read-out: TGI): > 100 µM
- GI50 ([14]; read-out: pGI50 (converted)): 0.0776 µM
- CC50 [14, 34]: > 100 µM
- TGI ([14]; read-out: pTGI): > 100 µM
- growth at 10 µM [15]: 39%
- growth at 100 µM [16]: 6%
- GI50 ([17]; read-out: GI50): 0.096 µM
- CC50 [17, 33]: > 100 µM
- TGI ([17]; read-out: TGI): > 100 µM
- GI50 ([17]; read-out: pGI50 (converted)): 0.0955 µM
- CC50 [17, 34]: > 100 µM
- TGI ([17]; read-out: pTGI): > 100 µM
- growth at 0.01 µM [18]: 103%
- GI50 ([19]; read-out: GI50): 0.176 µM
- CC50 [19, 33]: > 100 µM
- TGI ([19]; read-out: TGI): 18.9 µM
- GI50 ([19]; read-out: pGI50 (converted)): 0.178 µM
- CC50 [19, 34]: > 100 µM
- TGI ([19]; read-out: pTGI (converted)): 19.1 µM
- growth at 100 µM [20]: 1%
- growth at 0.01 µM [21]: 73%
- growth at 0.01 µM [22]: 86%
- growth at 100 µM [23]: -35%
- growth at 0.1 µM [24]: 73%
- growth at 0.01 µM [25]: 105%
- growth at 0.1 µM [26]: 48%
- growth at 10 µM [27]: 22%
- growth at 1 µM [28]: 37%
- growth at 100 µM [29]: -27%
- growth at 0.1 µM [30]: 76%
- growth at 100 µM [31]: -47%
- growth at 10 µM [32]: 17%
